What is called IC50 is the concentration that inhibits the measured activity by half.

Common to all, as to assay type: biochemical
Experiment [1] has as its target T1, PI3K α (Homo sapiens, UniProt P42336).
T1 construct: purchased Upstate
Nature of the experiment: In vitro IC50, PI3K α. From the text:
(§1) An exemplary system is PI 3-Kinase (human) HTRF™ Assay from Upstate.

The target in experiment [2] is PI3K β (Homo sapiens, UniProt P42338). Nature of the experiment: In vitro IC50, PI3K β.
Source text: as §1

Experiment [3] addresses PI3K δ (Homo sapiens, UniProt O00329). Nature of the experiment: In vitro IC50, PI3K δ. Further details: purchased Upstate.
Source text: as §1

Experiment [4] concerns the target T2, PI3K γ (Homo sapiens, UniProt P48736).
T2 construct: purchased Sigma
Nature of the experiment: In vitro IC50, PI3K γ.
Source text: as §1

Where “and” joins values, the source holds several entries; their conditions need not be identical. Equal values may be shown once.

T1 sequence (P42336 whole entry): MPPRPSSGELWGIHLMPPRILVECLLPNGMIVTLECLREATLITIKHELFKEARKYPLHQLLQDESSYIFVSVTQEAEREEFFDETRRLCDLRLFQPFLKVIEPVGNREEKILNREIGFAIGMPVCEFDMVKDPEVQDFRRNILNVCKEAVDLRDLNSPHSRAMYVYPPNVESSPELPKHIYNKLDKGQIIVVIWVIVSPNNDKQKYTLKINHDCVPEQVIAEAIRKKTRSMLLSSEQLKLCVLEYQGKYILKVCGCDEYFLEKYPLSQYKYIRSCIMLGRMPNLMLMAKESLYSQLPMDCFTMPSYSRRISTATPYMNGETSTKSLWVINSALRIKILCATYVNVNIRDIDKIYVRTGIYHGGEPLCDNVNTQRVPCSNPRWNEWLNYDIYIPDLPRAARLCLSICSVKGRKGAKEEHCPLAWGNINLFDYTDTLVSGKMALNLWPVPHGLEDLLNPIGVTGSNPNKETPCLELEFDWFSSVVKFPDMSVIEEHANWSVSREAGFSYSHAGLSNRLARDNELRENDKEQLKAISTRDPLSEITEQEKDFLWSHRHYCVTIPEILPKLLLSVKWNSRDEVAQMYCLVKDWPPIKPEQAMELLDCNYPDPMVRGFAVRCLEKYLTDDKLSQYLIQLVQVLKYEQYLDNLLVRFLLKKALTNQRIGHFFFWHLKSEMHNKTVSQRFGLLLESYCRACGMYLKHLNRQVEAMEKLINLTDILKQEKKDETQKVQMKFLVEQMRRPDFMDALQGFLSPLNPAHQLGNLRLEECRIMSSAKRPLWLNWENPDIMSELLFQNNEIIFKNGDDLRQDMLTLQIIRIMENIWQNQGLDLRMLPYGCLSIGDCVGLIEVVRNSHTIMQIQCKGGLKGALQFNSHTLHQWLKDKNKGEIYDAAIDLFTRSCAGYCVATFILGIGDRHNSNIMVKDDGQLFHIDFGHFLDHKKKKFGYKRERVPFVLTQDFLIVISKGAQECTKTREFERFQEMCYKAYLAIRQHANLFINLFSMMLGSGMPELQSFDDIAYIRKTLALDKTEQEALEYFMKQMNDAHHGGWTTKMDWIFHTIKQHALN
T1 sequence (P27986 whole entry partner): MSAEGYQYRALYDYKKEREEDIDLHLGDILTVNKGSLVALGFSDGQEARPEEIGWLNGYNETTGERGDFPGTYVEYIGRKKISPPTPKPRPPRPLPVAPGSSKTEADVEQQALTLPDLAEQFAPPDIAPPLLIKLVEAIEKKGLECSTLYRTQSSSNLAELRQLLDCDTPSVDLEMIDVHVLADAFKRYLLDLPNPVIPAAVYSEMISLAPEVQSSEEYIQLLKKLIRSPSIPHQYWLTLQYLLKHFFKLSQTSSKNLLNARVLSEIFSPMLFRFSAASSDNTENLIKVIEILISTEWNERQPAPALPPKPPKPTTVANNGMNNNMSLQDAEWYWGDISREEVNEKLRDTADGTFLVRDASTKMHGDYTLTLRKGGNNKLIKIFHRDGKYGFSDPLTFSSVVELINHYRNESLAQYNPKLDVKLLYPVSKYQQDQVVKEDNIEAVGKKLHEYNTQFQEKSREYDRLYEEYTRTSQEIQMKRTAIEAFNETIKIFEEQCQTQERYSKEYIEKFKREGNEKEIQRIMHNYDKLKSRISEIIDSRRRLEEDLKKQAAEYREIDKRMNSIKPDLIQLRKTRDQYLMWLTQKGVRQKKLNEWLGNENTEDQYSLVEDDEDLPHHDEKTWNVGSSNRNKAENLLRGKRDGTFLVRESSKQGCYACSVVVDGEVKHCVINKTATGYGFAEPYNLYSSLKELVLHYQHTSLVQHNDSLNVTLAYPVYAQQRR
T2 sequence (P48736 whole entry): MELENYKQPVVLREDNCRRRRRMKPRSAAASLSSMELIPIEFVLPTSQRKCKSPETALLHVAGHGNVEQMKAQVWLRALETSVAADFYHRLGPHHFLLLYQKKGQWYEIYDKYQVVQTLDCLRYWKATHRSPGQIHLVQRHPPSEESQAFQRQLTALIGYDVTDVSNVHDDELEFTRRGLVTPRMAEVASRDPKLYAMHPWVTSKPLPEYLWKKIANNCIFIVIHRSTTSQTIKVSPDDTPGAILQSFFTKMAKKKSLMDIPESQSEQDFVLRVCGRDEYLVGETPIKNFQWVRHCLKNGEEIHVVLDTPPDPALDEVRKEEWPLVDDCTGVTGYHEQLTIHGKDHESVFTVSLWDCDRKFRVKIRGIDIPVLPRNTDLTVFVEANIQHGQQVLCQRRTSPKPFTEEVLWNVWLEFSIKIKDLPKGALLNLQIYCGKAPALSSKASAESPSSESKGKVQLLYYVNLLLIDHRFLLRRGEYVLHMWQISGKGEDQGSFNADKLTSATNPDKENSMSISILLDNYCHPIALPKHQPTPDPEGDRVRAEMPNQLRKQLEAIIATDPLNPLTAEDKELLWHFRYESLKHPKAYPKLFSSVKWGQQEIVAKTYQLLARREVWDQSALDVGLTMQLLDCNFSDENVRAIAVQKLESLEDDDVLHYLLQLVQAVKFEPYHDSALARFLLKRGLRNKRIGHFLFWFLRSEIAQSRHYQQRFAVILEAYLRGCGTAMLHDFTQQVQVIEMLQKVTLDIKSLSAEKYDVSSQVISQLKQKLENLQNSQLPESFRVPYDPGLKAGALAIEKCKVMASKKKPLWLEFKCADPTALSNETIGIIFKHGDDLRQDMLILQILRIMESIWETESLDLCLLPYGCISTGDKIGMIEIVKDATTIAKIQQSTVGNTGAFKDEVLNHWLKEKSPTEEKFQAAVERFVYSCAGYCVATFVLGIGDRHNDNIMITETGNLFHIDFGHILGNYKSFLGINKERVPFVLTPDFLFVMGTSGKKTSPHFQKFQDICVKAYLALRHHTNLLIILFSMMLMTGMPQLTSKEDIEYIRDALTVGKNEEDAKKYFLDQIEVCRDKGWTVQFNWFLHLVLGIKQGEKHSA
Chain of PI3K δ (O00329 whole entry): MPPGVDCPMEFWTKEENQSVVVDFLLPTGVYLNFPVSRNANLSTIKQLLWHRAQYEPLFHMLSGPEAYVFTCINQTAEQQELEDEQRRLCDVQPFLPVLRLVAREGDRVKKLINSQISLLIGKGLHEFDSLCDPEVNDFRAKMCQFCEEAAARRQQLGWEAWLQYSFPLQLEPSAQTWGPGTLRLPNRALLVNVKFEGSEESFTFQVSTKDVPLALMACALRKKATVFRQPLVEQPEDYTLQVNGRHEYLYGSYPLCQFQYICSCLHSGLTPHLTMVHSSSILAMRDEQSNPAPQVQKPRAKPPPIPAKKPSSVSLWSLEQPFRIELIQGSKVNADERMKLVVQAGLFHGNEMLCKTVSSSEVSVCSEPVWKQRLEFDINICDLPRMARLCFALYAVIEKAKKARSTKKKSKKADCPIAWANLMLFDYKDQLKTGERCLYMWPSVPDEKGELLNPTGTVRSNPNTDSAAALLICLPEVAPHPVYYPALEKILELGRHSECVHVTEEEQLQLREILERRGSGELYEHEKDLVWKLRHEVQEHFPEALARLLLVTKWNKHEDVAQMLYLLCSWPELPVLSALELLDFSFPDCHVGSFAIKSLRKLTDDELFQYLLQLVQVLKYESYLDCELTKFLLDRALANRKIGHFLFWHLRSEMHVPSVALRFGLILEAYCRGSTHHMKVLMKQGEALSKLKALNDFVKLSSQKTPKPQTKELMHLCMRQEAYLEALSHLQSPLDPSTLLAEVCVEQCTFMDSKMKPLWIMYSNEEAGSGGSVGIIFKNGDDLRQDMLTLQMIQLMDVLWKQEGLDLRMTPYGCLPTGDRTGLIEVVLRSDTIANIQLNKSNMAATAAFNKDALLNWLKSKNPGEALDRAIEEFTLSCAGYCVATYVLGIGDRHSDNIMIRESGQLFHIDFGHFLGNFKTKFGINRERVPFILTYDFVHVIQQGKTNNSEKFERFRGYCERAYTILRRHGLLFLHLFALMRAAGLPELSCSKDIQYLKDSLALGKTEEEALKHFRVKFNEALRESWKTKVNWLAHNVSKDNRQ
Chain of PI3K δ (P27986 whole entry partner): as the sequence (P27986 whole entry partner) above
Chain of PI3K β (P42338 whole entry): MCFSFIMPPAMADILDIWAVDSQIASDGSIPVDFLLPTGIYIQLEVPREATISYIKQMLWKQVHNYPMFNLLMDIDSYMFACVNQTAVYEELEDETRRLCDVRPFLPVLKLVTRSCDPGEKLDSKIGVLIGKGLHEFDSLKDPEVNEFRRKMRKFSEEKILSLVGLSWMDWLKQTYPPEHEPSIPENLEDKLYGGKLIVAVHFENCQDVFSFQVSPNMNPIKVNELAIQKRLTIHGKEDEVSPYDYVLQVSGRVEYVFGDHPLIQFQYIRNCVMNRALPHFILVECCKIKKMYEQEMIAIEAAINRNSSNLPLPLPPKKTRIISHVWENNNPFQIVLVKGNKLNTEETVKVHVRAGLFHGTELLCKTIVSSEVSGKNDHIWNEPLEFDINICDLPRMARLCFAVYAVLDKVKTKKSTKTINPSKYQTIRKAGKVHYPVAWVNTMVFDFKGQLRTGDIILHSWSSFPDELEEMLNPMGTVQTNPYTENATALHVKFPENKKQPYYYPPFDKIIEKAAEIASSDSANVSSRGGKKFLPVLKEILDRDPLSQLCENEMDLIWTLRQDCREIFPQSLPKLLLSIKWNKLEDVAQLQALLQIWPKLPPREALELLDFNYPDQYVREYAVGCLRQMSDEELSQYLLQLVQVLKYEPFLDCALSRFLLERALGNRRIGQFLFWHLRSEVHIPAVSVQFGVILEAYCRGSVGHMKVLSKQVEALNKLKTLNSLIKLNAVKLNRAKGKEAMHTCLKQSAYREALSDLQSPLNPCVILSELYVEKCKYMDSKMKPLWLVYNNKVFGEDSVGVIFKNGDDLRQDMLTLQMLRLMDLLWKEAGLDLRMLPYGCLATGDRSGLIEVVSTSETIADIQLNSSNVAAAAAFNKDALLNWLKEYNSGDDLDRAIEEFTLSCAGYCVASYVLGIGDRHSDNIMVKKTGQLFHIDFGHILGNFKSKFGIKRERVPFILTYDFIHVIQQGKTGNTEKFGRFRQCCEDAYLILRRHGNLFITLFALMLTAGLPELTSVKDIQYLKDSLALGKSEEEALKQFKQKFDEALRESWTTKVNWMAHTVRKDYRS

As for `CC(=O)Nc1nc2ccc(-c3nn(Cc4cc5cccc(C)c5c(=O)n4C4CC4)c4ncnc(N)c34)cc2s1` [Compound 155], the IC50 in experiment [1], in experiment [2] and in experiment [3] was < 0.1 µM in each case.
As to `Cc1ccccc1-n1c(Cn2nc(I)c3c(N)ncnc32)cc2ccccc2c1=O` [Compound 31], the IC50 was < 0.1 µM in experiment [4], > 10 µM in experiment [1] and < 1 µM in experiment [3].
The like results for `Cc1cccnc1-n1c(Cn2nc(Cl)c3c(N)ncnc32)cc2cccc(C)c2c1=O` [Compound 18] were, in that order, > 10 µM, > 10 µM and < 1 µM.
As to `Cc1ccccc1-n1c(Cn2nc(CF)c3c(N)ncnc32)cc2cccc(C)c2c1=O` [Compound 310], the IC50 in experiment [4] is < 0.1 µM; in experiment [2], > 10 µM; in experiment [3] it was < 0.1 µM.
With `Cc1cccnc1-n1c(Cn2nc(I)c3c(N)ncnc32)cc2cccc(C)c2c1=O` [Compound 15], the figures for the IC50 in experiment [4], in experiment [1] and in experiment [3] were < 1 µM, > 10 µM and < 1 µM, respectively.
Turning to `Cc1cccc2cc(Cn3nc(C#C[C@@H](C)O)c4c(N)ncnc43)n(C3CCCCC3)c(=O)c12` [Compound 112], the values for the IC50 in experiment [1], in experiment [2] and in experiment [3] were > 10 µM, > 10 µM and < 0.1 µM, respectively.
As for `Cc1ccccc1-n1c(Cn2nc(-c3ccc(Cl)cc3)c3c(N)ncnc32)cc2cccc(C)c2c1=O` [Compound 49], the IC50 in experiment [4] is < 1 µM; in experiment [1], > 10 µM; in experiment [3] it was < 1 µM.
In the case of `Cc1cccc2cc([C@H](C)NC(=O)c3cnn4ccccc34)n(-c3ccccc3)c(=O)c12` [Compound 241], the IC50 in experiment [4] was < 10 µM; in experiment [1], > 10 µM; in experiment [3], > 10 µM.
With `CNC(=O)Nc1nc2ccc(-c3nn(Cc4cc5cccc(C)c5c(=O)n4-c4ccccc4C)c4ncnc(N)c34)cc2s1` [Compound 148], the IC50 in experiment [4], in experiment [1] and in experiment [3] was < 0.1 µM in each case.
With `Cc1cccc2cc(Cn3nc(-c4cccc(O)c4)c4c(N)ncnc43)n(C3CCC3)c(=O)c12` [Compound 114], the results for the IC50 in experiment [1], in experiment [2] and in experiment [3] were > 10 µM, < 10 µM and < 0.1 µM, respectively.
As to `Cc1ccccc1-n1c(Cn2nc(CC#N)c3c(N)ncnc32)cc2cccc(C)c2c1=O` [Compound 312], the IC50 in experiment [4] was < 10 µM; in experiment [2] it was > 10 µM; in experiment [3], < 0.1 µM.
In the case of `Cc1ccccc1-n1c(Cn2nc(-c3cc(O)cc(F)c3)c3c(N)ncnc32)cc2ccccc2c1=O` [Compound 33], the IC50 was < 0.1 µM in experiment [4], > 10 µM in experiment [1] and < 0.1 µM in experiment [3].
For the compound `Cc1cccc2cc([C@H](C)Nc3ncnc4[nH]ncc34)n(-c3ccccc3)c(=O)c12` [Compound 258], the IC50 was < 10 µM in experiment [4], > 10 µM in experiment [1] and < 1 µM in experiment [3].
Regarding `Cc1ccccc1-n1c(Cn2nc(-c3cnc4[nH]ccc4c3)c3c(N)ncnc32)cc2cccc(C)c2c1=O` [Compound 48], the values for the IC50 in experiment [4], in experiment [1] and in experiment [3] were < 0.1 µM, > 10 µM and < 0.1 µM, respectively.
For the compound `CCc1ccccc1-n1c(Cn2nc(I)c3c(N)ncnc32)cc2cccc(C)c2c1=O` [Compound 77], the figures for the IC50 in experiment [4], in experiment [2] and in experiment [3] were < 0.1 µM, < 10 µM and < 0.1 µM, respectively.
For `Cc1nc2c(N[C@@H](C)c3cc4cccc(C)c4c(=O)n3-c3ccccc3)ncnc2[nH]1` [Compound 242], the values for the IC50 in experiment [4], in experiment [1] and in experiment [3] were < 10 µM, > 10 µM and < 10 µM, respectively.
As for `CC(=O)Nc1nc2ccc(-c3nn(Cc4cc5cccc(Cl)c5c(=O)n4C(C)C)c4ncnc(N)c34)cc2s1` [Compound 157], the IC50 in experiment [1], in experiment [2] and in experiment [3] was < 0.1 µM each time.
`Cc1cccc2cc(Cn3nc(-c4cc(O)cc(F)c4)c4c(N)ncnc43)n(C3CCC3)c(=O)c12` [Compound 115]: the values for the IC50 in experiment [1], in experiment [2] and in experiment [3] were < 10 µM, < 10 µM and < 0.1 µM, respectively.
Take `Cc1cccc2cc(Cn3nc(-c4cccc(Cl)c4)c4c(N)ncnc43)n(-c3ccccc3F)c(=O)c12` [Compound 38]: the half-maximal inhibitory concentration (IC50) in experiment [4] is > 10 µM and < 10 µM; in experiment [2] it was > 10 µM; in experiment [3], < 10 µM.
In the case of `Cc1cccc2cc([C@H](C)Nc3ncnc4[nH]cnc34)n(C3CC3)c(=O)c12` [Compound 200], the IC50 in experiment [4], in experiment [2] and in experiment [3] was < 0.1 µM throughout.
Consider `Cc1cccc2cc(Cn3nc(CF)c4c(N)ncnc43)n(-c3ccccc3)c(=O)c12` [Compound 311], for which the IC50 in experiment [4] was < 0.1 µM; in experiment [2], > 10 µM; in experiment [3], < 0.1 µM.
With `COc1ccc(-c2nn(Cc3cc4cccc(C)c4c(=O)n3-c3ccccc3F)c3ncnc(N)c23)cc1OC` [Compound 47], the half-maximal inhibitory concentration (IC50) in experiment [4] was < 1 µM; in experiment [1], > 10 µM; in experiment [3], < 1 µM.
With `Cc1cccc2cc(Cn3nc(I)c4c(N)ncnc43)n(-c3ccccc3C(C)C)c(=O)c12` [Compound 75], the IC50 was < 0.1 µM in experiment [4], < 10 µM in experiment [2] and < 0.1 µM in experiment [3].
As to `Cc1cccc2cc(Cn3nc(C(C)(C)O)c4c(N)ncnc43)n(-c3ccccc3)c(=O)c12` [Compound 318], the concentration for half-maximal inhibition (IC50) in experiment [4], in experiment [1] and in experiment [3] was > 10 µM each time.
`CNC(=O)c1nn(Cc2cc3cccc(C)c3c(=O)n2-c2ccccc2)c2ncnc(N)c12` [Compound 309]: the IC50 is < 10 µM in experiment [4], > 10 µM in experiment [1] and < 1 µM in experiment [3].
With `Cc1ccccc1-n1c(Cn2nc(Br)c3c(N)ncnc32)cc2cccc(C)c2c1=O` [Compound 19], the values for the IC50 in experiment [4], in experiment [1] and in experiment [3] were < 0.1 µM, > 10 µM and < 0.1 µM, respectively.
Take `Cc1cccc2cc([C@H](C)Nc3nc(F)nc4[nH]cnc34)n(-c3ccccc3)c(=O)c12` [Compound 245]: the IC50 is < 0.1 µM in experiment [4], < 10 µM in experiment [1] and < 0.1 µM in experiment [3].
As to `CCC(Nc1ncnc2[nH]cnc12)c1cc2cccc(C)c2c(=O)n1-c1c(F)cccc1F` (stereo not shown) [Compound 217], the IC50 in experiment [2] was > 10 µM; in experiment [3] it was < 10 µM.
Take `Cc1ccccc1-n1c(Cn2nc(Cl)c3c(N)ncnc32)cc2cccc(C)c2c1=O` [Compound 20]: the IC50 in experiment [4] was < 1 µM; in experiment [1], > 10 µM; in experiment [3], < 0.1 µM.
The like results for `Cc1ccccc1-n1c(Cn2nc(-c3cccc(O)c3)c3c(N)ncnc32)cc2ccccc2c1=O` [Compound 51] were, in that order, < 1 µM, > 10 µM and < 0.1 µM.
The like results for `Cc1cccnc1-n1c(Cn2nc(Br)c3c(N)ncnc32)cc2cccc(C)c2c1=O` [Compound 17] were, in that order, < 10 µM, > 10 µM and < 1 µM.
In the case of `Cc1cccnc1-n1c(Cn2nc(-c3cc(O)cc(F)c3)c3c(N)ncnc32)cc2cccc(C)c2c1=O` [Compound 16], the values for the IC50 in experiment [4], in experiment [1] and in experiment [3] were < 0.1 µM, > 10 µM and < 0.1 µM, respectively.
`Cc1ccccc1-n1c(Cn2nc(-c3ccc(O)c(F)c3)c3c(N)ncnc32)cc2cccc(C)c2c1=O` [Compound 30]: the IC50 is < 0.1 µM in experiment [4], > 10 µM in experiment [1] and < 0.1 µM in experiment [3].
On to `Cc1ccccc1-n1c(Cn2nc(-c3cc(O)cc(F)c3)c3c(N)ncnc32)cc2cccc(C)c2c1=O` [Compound 7], for which the IC50 is < 10 µM in experiment [1] and < 1 µM in experiment [2].
As to `Cc1cccc2cc(Cn3nc(-c4ccc5nc(N)cn5c4)c4c(N)ncnc43)n(-c3ccccc3)c(=O)c12` [Compound 239], the IC50 in experiment [4] is < 10 µM; in experiment [1] it was > 10 µM; in experiment [3], < 1 µM.
Take `COc1ccc(-c2nn(Cc3cc4cccc(C)c4c(=O)n3-c3ccccc3C)c3ncnc(N)c23)cc1` [Compound 45]: the IC50 in experiment [4] was < 0.1 µM; in experiment [1] it was > 10 µM; in experiment [3], < 1 µM.
Turning to `CC(=O)Nc1nc2ccc(-c3nn(Cc4cc5cccc(C)c5c(=O)n4-c4cccc(F)c4)c4ncnc(N)c34)cc2s1` [Compound 178], the IC50 in experiment [4] is < 0.1 µM; in experiment [2] it was < 10 µM; in experiment [3] it was < 0.1 µM.
Consider `CC(=O)c1nn(Cc2cc3cccc(C)c3c(=O)n2-c2ccccc2)c2ncnc(N)c12` [Compound 319], for which the IC50 in experiment [4] was < 10 µM; in experiment [1], > 10 µM; in experiment [3], < 1 µM.
Turning to `Cc1cccc2cc(Cn3nc(I)c4c(N)ncnc43)n(-c3ccccc3Cl)c(=O)c12` [Compound 76], the results for the 50% inhibitory concentration (IC50) in experiment [4], in experiment [2] and in experiment [3] were < 1 µM, > 10 µM and < 0.1 µM, respectively.
For the compound `CNc1ncc(Cl)c(N[C@@H](C)c2cc3cccc(C)c3c(=O)n2-c2ccccc2)n1` [Compound 250], the IC50 in experiment [4] was < 1 µM; in experiment [1], > 10 µM; in experiment [3], < 1 µM.
`Cc1ccccc1-n1c(Cn2nc(CO)c3c(N)ncnc32)cc2cccc(C)c2c1=O` [Compound 313]: the IC50 in experiment [4] is < 10 µM; in experiment [1] it was > 10 µM; in experiment [3] it was < 1 µM.
Consider `Cc1ccncc1-n1c(Cn2nc(I)c3c(N)ncnc32)cc2cccc(C)c2c1=O` [Compound 78], for which the results for the IC50 in experiment [4], in experiment [2] and in experiment [3] were < 1 µM, > 10 µM and < 0.1 µM, respectively.
Turning to `Cc1ccccc1-n1c(Cn2nc(-c3ccc4cc[nH]c4c3)c3c(N)ncnc32)cc2cccc(C)c2c1=O` [Compound 50], the IC50 is < 0.1 µM in experiment [4], > 10 µM in experiment [1] and < 0.1 µM in experiment [3].
Consider `COCc1nn(Cc2cc3cccc(C)c3c(=O)n2-c2ccccc2C)c2ncnc(N)c12` [Compound 314], for which the IC50 in experiment [4], in experiment [1] and in experiment [3] was > 10 µM throughout.

The values are drawn from patent publication US20140120083A1, “TREATMENT OF CANCERS USING PI3 KINASE ISOFORM MODULATORS” (INFINITY PHARMACEUTICALS, INC., priority 2012, published 2014).
